According to patent publication US6593462B2, “Purified β1,2-xylosyltransferase and uses thereof” (priority 1997, dated 2003):
Each block holds one molecule with its values, some of them ahead of it.

What was measured:
β1,2-xylosyltransferase [1] = assay: Solubilization of xylosyltransferase from microsomes by detergents; type: biochemical, soybean; conditions: for Xylose Transferred to Acceptor (cpm), High Speed Supernatant / Xylose Transferred to Acceptor (cpm), Particulate Suspension: protein 10 mg/ml
Method: In order to purify this glycosyltransferase, it was necessary to solubilize the enzyme from the microsomes. A variety of detergents were tested at different concentrations for their ability to solubilize the xylosyltransferase and maintain its stability. […] The enzymatic activity in the supernatant liquid was then measured in the usual transferase assay.

β1,2-xylosyltransferase [2] = assay: Xylosyltransferase activity assay: transfer of 3H-xylose from UDP-[3H]xylose to oligosaccharide acceptor; type: biochemical, soybean; conditions: for Activity (cpm xylose transferred) with Purified Enzyme / Activity (cpm xylose transferred) with Particulate Enzyme: oligosaccharide as acceptor, gel filtration on Biogel P-4; for Effect of cation added to the purified enzyme (in words) / Stimulation of enzyme activity: 1 mM; for Km: purified enzyme, FIG. 8; for Stimulation of enzyme activity: enzyme dialyzed in the presence of EDTA
Method: Reaction mixtures for the assay of β1,2-xylosyltransferase contained the following components in a final volume of 25 μl: 100 mM MES buffer, pH 7.0, 10 mM MnCl2, 0.2% Triton X-100, 5 mM ATP, 0.2 mM UDP-[^3H]xylose (15,000 cpm), and 4 nmol of oligosaccharide acceptor (usually GlcNAc2-Man3-GlcNAc2-tyrosinamide; see structure 4 of FIG. 6, or the asialo-agalacto-oligosaccharide from transferrin). The reaction was started by the addition of 5 μl of the enzyme solution, and incubations were usually at 37° C. for 1 hour. The reaction was stopped by the addition of 100 μl of 1% acetic acid, and the reaction mixtures were chromatographed on a column of Biogel P-4 prepared by placing 8 ml of gel into a 10 ml pipette. The columns were equilibrated with 1% acetic acid, and the product was separated from substrates by elution with 1% acetic acid containing 0.2 M NaCl.
When more purified enzyme preparations were used in the assays, the radiolabeled product could be separated from the radioactive substrate by ion-exchange chromatography on an Amberlite column (or a column of Dowex-1-Cl^−) contained in a Pasteur pipette. […] Thus the wash can be counted as a measure of radioactive xylose transferred to oligosaccharide. In these assays, it is important to be certain that the enzyme preparation is free of degradative enzymes that cleave UDP-xylose to free xylose.

[3] = system: β1,2-xylosyltransferase (56 and 59 kDa bands); assay: Photoaffinity labeling of xylosyltransferase with N3-UDP[32P]-xylose; type: binding, soybean; conditions: for Effect of oligosaccharide on binding of UDP-xylose probe: FIG. 3A lanes 12 and 13; for Effect of unlabeled nucleoside diphosphate sugar on radiolabel in the 56 and 59 kDa bands: 10 and 100 μM (b69 prints 0.1, 1 and 10 μM for UDP-xylose)
Method: In FIG. 3B, effects of various amounts of acceptor oligosaccharides on labeling with UDP-xylose probe are shown.
In order to determine which band was really the xylosyltransferase, the enzyme fraction from UDP-hexanolamine-Sepharose was incubated with azido-UDP[^32P]-xylose, and after 30 sec., the mixture was exposed to UV light to activate the azido group.
Thus, lane 1 is without oligosaccharide acceptor while lanes 2-5 are with 4, 10, 30 and 80 μM oligosaccharide 4 and lanes 6-9 with oligoscacharide 10.

fucosyltransferase = assay: Fucose incorporation from GDP-[3H]fucose into oligosaccharide 4 by soybean particulate enzyme; type: biochemical; conditions: oligosaccharide 4 acceptor
Method: Based on the substrate specificity for oligosaccharide acceptor, it would appear that xylose is added after the action of GlcNAc transferase I and mannosidase II but before the addition of galactose residues to the terminal GlcNAc units. Most of these types of N-linked oligosaccharides also contain an […] L-fucose on the innermost GlcNAc unit. In order to determine whether addition of xylose affects fucose transfer to the oligosaccharide, or vice versa, assays were prepared that contained oligosaccharide 4 as acceptor, radiolabeled nucleoside diphosphate sugar (i.e., either UDP-[^3H]xylose or GDP-[^3H]fucose) and either unlabeled UDP-xylose or unlabeled GDP-fucose. Thus, when the incubation contained radioactive UDP-xylose, various amounts of unlabeled GDP-fucose were added to determine whether addition of fucose would stimulate or inhibit xylose transfer. Likewise, when labeled GDP-fucose was used, the incubations contained unlabeled UDP-xylose. These incubations were done with the soybean particulate enzyme, so that both fucosyltransferase and xylosyltransferase were present.

β1,2-xylosyltransferase [4] = assay: Xylosyltransferase activity assay: transfer of 3H-xylose from UDP-[3H]xylose to oligosaccharide acceptor; type: biochemical, soybean; conditions: donor substrate; 5 nmoles of oligosaccharide 4; FIG. 9
β1,2-xylosyltransferase [5] = assay: Specificity of nucleoside diphosphate sugar donor for xylosyltransferase; type: biochemical, soybean; conditions: radioactive sugar nucleotide 20,000 cpm, 200 μM, asialo-agalactotransferrin glycopeptide acceptor, 1 hour at 37°; for cpm incorporated into oligosaccharide, Purified Enzyme: about 20 ng protein
Method: The substrate specificity of the xylosyltransferase for the nucleoside diphosphate sugar donor was also examined, using a variety of radiolabeled sugar nucleotides, as presented in Table 4. Each of these substrates was adjusted to have the same specific activity, and they were compared to each other at that activity.
Enzyme (particulate fraction or purified xylosyltransferase (about 20 ng protein) from UDP-hexanolamine-Sepharose) was incubated with radioactive sugar nucleotide (20,000 cpm; 200 μM) and asialo-agalactotransferrin glycopeptide for 1 hour at 37°. The reaction mixture was then separated on a Biogel P-4 column and radioactivity in oligasaccharide was determined.

Molecule: CCCCCCCCCCCCCCCC[n+]1ccccc1.[Cl-] [CPC]
Xylose Transferred to Acceptor (cpm), High Speed Supernatant (β1,2-xylosyltransferase [1]; detergent 1%): 64 cpm | Xylose Transferred to Acceptor (cpm), Particulate Suspension (β1,2-xylosyltransferase [1]; detergent 1%): 1341 cpm

Ability to serve as acceptor of xylose (in words) (β1,2-xylosyltransferase [2]): completely inactive as an acceptor | Activity (cpm xylose transferred) with Purified Enzyme (β1,2-xylosyltransferase [2]): 1194 cpm
Molecule: GlcNAc-Man3-5-isomer [Oligosaccharide 9]

Effect of EDTA on purified xylosyltransferase (β1,2-xylosyltransferase [2]; addition of, or dialysis against): not inhibited
Molecule: O=C(O)CN(CCN(CC(=O)O)CC(=O)O)CC(=O)O [EDTA]

Xylose Transferred to Acceptor (cpm), High Speed Supernatant (β1,2-xylosyltransferase [1]; detergent 1%): 1574 cpm | Xylose Transferred to Acceptor (cpm), Particulate Suspension (β1,2-xylosyltransferase [1]; detergent 1%): 1570 cpm
Molecule: C[C@H](CCC(=O)NCCS(=O)(=O)O)[C@H]1CC[C@H]2[C@@H]3[C@H](O)C[C@@H]4C[C@H](O)CC[C@]4(C)[C@H]3C[C@H](O)[C@]12C [Taurocholoate]

Xylose Transferred to Acceptor (cpm), High Speed Supernatant (β1,2-xylosyltransferase [1]; detergent 1%): 210 cpm | Xylose Transferred to Acceptor (cpm), Particulate Suspension (β1,2-xylosyltransferase [1]; detergent 1%): 2395 cpm
Molecule: CCCCCCCCO[C@@H]1O[C@H](CO)[C@@H](O)[C@H](O)[C@H]1O [Octylglucoside]

Effect of cation added to the purified enzyme (in words) (β1,2-xylosyltransferase [2]): no stimulation
Molecule: [Ca+2] [Ca^++]

Molecule: [Hg+2] [Hg^++]
Effect of cation added to the purified enzyme (in words) (β1,2-xylosyltransferase [2]): strongly inhibitory

Ability to serve as acceptor of xylose (in words) (β1,2-xylosyltransferase [2]): best acceptors | Activity (cpm xylose transferred) with Particulate Enzyme (β1,2-xylosyltransferase [2]): 3212 cpm | Activity (cpm xylose transferred) with Purified Enzyme (β1,2-xylosyltransferase [2]): 2387 cpm | Km (β1,2-xylosyltransferase [2]): ~150 µM | Effect of oligosaccharide on binding of UDP-xylose probe [3]: greatly stimulated binding of UDP-xylose
Molecule: GlcNAc2Man3GlcNAc(Fuc)GlcNAc-T [Oligosaccharide 10]

Activity (cpm xylose transferred) with Purified Enzyme (β1,2-xylosyltransferase [2]): 106 cpm
Molecule: Transferrin: transferrin obtained from Sigma Chemical Co.

Km (β1,2-xylosyltransferase [4]): ~0.1 µM | cpm incorporated into oligosaccharide, Particulate Enzyme (β1,2-xylosyltransferase [5]): 1479 cpm | cpm incorporated into oligosaccharide, Purified Enzyme (β1,2-xylosyltransferase [5]): 2597 cpm | Effect of unlabeled nucleoside diphosphate sugar on radiolabel in the 56 and 59 kDa bands [3]: greatly diminished
Molecule: O=c1ccn([C@@H]2O[C@H](COP(=O)(O)OP(=O)(O)O[C@H]3OC[C@@H](O)[C@H](O)[C@H]3O)[C@@H](O)[C@H]2O)c(=O)[nH]1 [UDP-xylose]
Effect of unlabeled UDP-xylose on incorporation of fucose into oligosaccharide (fucosyltransferase): did not affect the incorporation of fucose

Stimulation of enzyme activity (β1,2-xylosyltransferase [2]): 15%
Molecule: [Ca+2].[Cl-].[Cl-] [CaCl2]

cpm incorporated into oligosaccharide, Particulate Enzyme (β1,2-xylosyltransferase [5]): 246 cpm | cpm incorporated into oligosaccharide, Purified Enzyme (β1,2-xylosyltransferase [5]): 128 cpm
Molecule: CC(=O)N[C@H]1[C@@H](OP(=O)(O)OP(=O)(O)OC[C@H]2O[C@@H](n3ccc(=O)[nH]c3=O)[C@H](O)[C@@H]2O)O[C@H](CO)[C@@H](O)[C@@H]1O [UDP-GlcNAc]

Activity (cpm xylose transferred) with Particulate Enzyme (β1,2-xylosyltransferase [2]): 48 cpm | Activity (cpm xylose transferred) with Purified Enzyme (β1,2-xylosyltransferase [2]): 262 cpm
Molecule: CC(=O)N[C@H]1[C@H](O[C@H]2[C@H](O)[C@@H](NC(C)=O)C(O)O[C@@H]2CO)O[C@H](CO)[C@@H](O[C@@H]2O[C@H](CO[C@H]3O[C@H](CO[C@H]4O[C@H](CO)[C@@H](O)[C@H](O)[C@@H]4O[C@H]4O[C@H](CO)[C@@H](O)[C@H](O)[C@@H]4O)[C@@H](O)[C@H](O[C@H]4O[C@H](CO)[C@@H](O)[C@H](O)[C@@H]4O[C@H]4O[C@H](CO)[C@@H](O)[C@H](O)[C@@H]4O)[C@@H]3O)[C@@H](O)[C@H](O[C@H]3O[C@H](CO)[C@@H](O)[C@H](O)[C@@H]3O[C@H]3O[C@H](CO)[C@@H](O)[C@H](O)[C@@H]3O[C@H]3O[C@H](CO)[C@@H](O)[C@H](O)[C@@H]3O)[C@@H]2O)[C@@H]1O (stereo partly shown) [Man9(GlcNAc)2]

Effect of cation added to the purified enzyme (in words) (β1,2-xylosyltransferase [2]): slight stimulation | Stimulation of enzyme activity (β1,2-xylosyltransferase [2]): 11%
Molecule: [Cl-].[Cl-].[Mg+2] [MgCl2]

Molecule: [Pb+2] [Pb^++]
Effect of cation added to the purified enzyme (in words) (β1,2-xylosyltransferase [2]): strongly inhibitory

Effect of unlabeled nucleoside diphosphate sugar on radiolabel in the 56 and 59 kDa bands [3]: did not inhibit
Molecule: O=C(O)[C@H]1O[C@H](OP(=O)(O)OP(=O)(O)OC[C@H]2O[C@@H](n3ccc(=O)[nH]c3=O)[C@H](O)[C@@H]2O)[C@H](O)[C@@H](O)[C@@H]1O [UDP-glucuronic acid]

Effect of cation added to the purified enzyme (in words) (β1,2-xylosyltransferase [2]): no stimulation
Molecule: [Co+2] [Co^++]

Effect of cation added to the purified enzyme (in words) (β1,2-xylosyltransferase [2]): slight stimulation
Molecule: [Cl][Mn][Cl] [MnCl2]

cpm incorporated into oligosaccharide, Particulate Enzyme (β1,2-xylosyltransferase [5]): 1033 cpm | cpm incorporated into oligosaccharide, Purified Enzyme (β1,2-xylosyltransferase [5]): 142 cpm | Effect of unlabeled GDP-fucose on xylose incorporation (β1,2-xylosyltransferase [2]; high concentrations, oligosaccharide 4 acceptor, particulate enzyme): some inhibition of xylose incorporation
Molecule: C[C@@H]1O[C@H](OP(=O)(O)OP(=O)(O)OC[C@H]2O[C@@H](n3cnc4c(=O)[nH]c(N)nc43)[C@H](O)[C@@H]2O)[C@@H](O)[C@H](O)[C@@H]1O [GDP-fucose]

Effect of cation added to the purified enzyme (in words) (β1,2-xylosyltransferase [2]): strongly inhibitory
Molecule: [Fe+3] [Fe^+++]

Effectiveness as xylose acceptor as compared to oligosaccharide 4 (β1,2-xylosyltransferase [2]): about 50% | Activity (cpm xylose transferred) with Purified Enzyme (β1,2-xylosyltransferase [2]): 69 cpm
Molecule: GlcNAc-Man3-5′-isomer [Oligosaccharide 8]

cpm incorporated into oligosaccharide, Particulate Enzyme (β1,2-xylosyltransferase [5]): 75 cpm | cpm incorporated into oligosaccharide, Purified Enzyme (β1,2-xylosyltransferase [5]): 59 cpm
Molecule: Nc1nc2c(ncn2[C@@H]2O[C@H](COP(=O)(O)OP(=O)(O)O[C@H]3O[C@H](CO)[C@@H](O)[C@H](O)[C@@H]3O)[C@@H](O)[C@H]2O)c(=O)[nH]1 [GDP-mannose]

Ability to serve as acceptor of xylose (in words) (β1,2-xylosyltransferase [2]): best acceptors | Activity (cpm xylose transferred) with Particulate Enzyme (β1,2-xylosyltransferase [2]): 3578 cpm | Activity (cpm xylose transferred) with Purified Enzyme (β1,2-xylosyltransferase [2]): 3648 cpm | Km (β1,2-xylosyltransferase [2]): ~75 µM | Effect of oligosaccharide on binding of UDP-xylose probe [3]: greatly stimulated binding of UDP-xylose
Molecule: GlcNAc2Man3(GlcNAc)2-T [Oligosaccharide 4]

cpm incorporated into oligosaccharide, Particulate Enzyme (β1,2-xylosyltransferase [5]): 72 cpm | cpm incorporated into oligosaccharide, Purified Enzyme (β1,2-xylosyltransferase [5]): 63 cpm
Molecule: CC(=O)N[C@H]1[C@@H](OP(=O)(O)OP(=O)(O)OC[C@H]2O[C@@H](n3ccc(=O)[nH]c3=O)[C@H](O)[C@@H]2O)O[C@H](CO)[C@H](O)[C@@H]1O [UDP-GalNAc]

Molecule: C[C@H](CCC(=O)NCCC[N+](C)(C)CCCS(=O)(=O)[O-])[C@H]1CC[C@H]2[C@@H]3[C@H](O)C[C@@H]4C[C@H](O)CC[C@]4(C)[C@H]3C[C@H](O)[C@]12C [CHAPS]
Xylose Transferred to Acceptor (cpm), High Speed Supernatant (β1,2-xylosyltransferase [1]; detergent 1%): 541 cpm | Xylose Transferred to Acceptor (cpm), Particulate Suspension (β1,2-xylosyltransferase [1]; detergent 1%): 2168 cpm

Enzymatic activity recovered in the supernatant liquid (β1,2-xylosyltransferase [1]; 1% or 2% detergent in Buffer B): at least 80% | Xylose Transferred to Acceptor (cpm), High Speed Supernatant (β1,2-xylosyltransferase [1]; detergent 0.5%): 1189 cpm | Xylose Transferred to Acceptor (cpm), Particulate Suspension (β1,2-xylosyltransferase [1]; detergent 0.5%): 2481 cpm | Xylose Transferred to Acceptor (cpm), High Speed Supernatant (β1,2-xylosyltransferase [1]; detergent 1%): 2188 cpm | Xylose Transferred to Acceptor (cpm), Particulate Suspension (β1,2-xylosyltransferase [1]; detergent 1%): 2689 cpm | Xylose Transferred to Acceptor (cpm), High Speed Supernatant (β1,2-xylosyltransferase [1]; detergent 2%): 2297 cpm | Xylose Transferred to Acceptor (cpm), Particulate Suspension (β1,2-xylosyltransferase [1]; detergent 2%): 2695 cpm
Molecule: Triton x-100

Effect of cation added to the purified enzyme (in words) (β1,2-xylosyltransferase [2]): no stimulation
Molecule: [Fe+2] [Fe^++]
